In patent US5723496A, “Method for prevention and treatment of harmful effects of intracellular acidosis” (priority 1995, dated 1998):
Several values for one entry are separate records, joined by “and”; a condition that tells them apart may be missing. Equal values may be shown once. Entries after “also recorded” stand apart in the source; their conditions may differ. Where a name gives a salt, the structure may show the parent alone.

Assays:
pKa determination = assay type: physicochemical; settings: read-out: pKa value (guanidino/amidino moiety)
Description: The mixture was heated to 60° C. and maintained at this temperature until evolution of gas ceased. The solution was cooled on ice until crystals were formed. Following the filtration, the crystals were dissolved in a minimum of distilled water and were recrystallized three times from water. Purity of GES was confirmed by proton NMR spectroscopy at 500 MHz (GE Omega-500). The pKa value of the amino moiety of GES was determined to be 12.48
GES was prepared as described above. Taurine and methyl isothiopseudourea were purchased from Sigma (St. Louis, Mo.). […] The mixture was heated to 60° C. and maintained at this temperature until evolution of gas ceased. The solution was cooled on ice to crystalize GES, and filtered. The crystals were dissolved in a minimal amount of distilled water and then recrystallized three times from water. The purity of GES was confirmed by proton NMR spectroscopy at 500 MHz (GE Omega-500). The pKa value of the amidino moiety of GES was determined to be 12.48.

[1] = tested on: adult mice exposed to anoxia; assay: survival of adult mice exposed to anoxia; assay type: in vivo, Adult Swiss mice; set-up: mortality, 2.5 minutes of anoxia / protection against 2.5 minutes anoxia: concentration or dose not given beside the values; settings: for protection against anoxia / survival (in words): sulfate
Description: Adult Swiss mice (BK-1 males, 20 g) purchased from Bantin & Kingman, Fremont, Calif. were used. Each batch consisted of 10 mice. Within each batch five mice were selected randomly as experimental animals and the remaining five as controls. Experimental mice received daily intraperitoneal injections of 0.25 ml of GES (50 mg/ml) for 14 days.
At day 14, all mice within the same batch (5 experimental and 5 each of the […]) were placed in a specially designed chamber (26.5×24.5×21.0 cm). Anoxia/hypoxia was produced by infusion of pure nitrogen gas ([…]) into the chamber for 2.5 or 2.75 minutes. Anoxia/hypoxia was reversed immediately after these intervals by removing the chamber and placing the mice in a room air environment.
The results are shown in FIG. 1 and discussed in detail above.

gerbil brain = assay: intracellular pH of gerbil brain (31P NMR); assay type: in vivo; settings: mean and standard deviation; p<0.05 (t-test) vs saline 7.17; sulfate
Description: Intracellular pH measurement of gerbil brain was performed non-invasively using ^31 P nuclear magnetic resonance (NMR) in vivo spectroscopy. AGE Omega CSI-7T (useful bore 120 mm, horizontal, 7T) was used.
Gerbils were divided into […] of 7 animals each. Control group received saline. Saline ischemia group received saline. GES group received GES. Gerbils were anesthetized with pentobarbital, 50 mg/kg. Gerbils were held in a padded holder which was placed in the probe chamber containing a one turn round surface coil (5 mm diameter) tunable to the resonance frequency of proton and ^31 P. To avoid signal contamination, the scalp and temporal muscle were retracted. The body temperature was kept at 37° C. using a non-magnetic heating pad. Field homogeneity was maximized by skimming on tissue water proton signals. ^31 P spectra were obtained using a one pulse sequence at 121.67 MHz with a spectral width of 10K and stored into 4K memory blocks (recycle time 2.7 sec). The broad resonance with short T2 on ^31 P spectra was removed by the convolution difference technique. Line broadening of 30 Hz was applied as noise filter.

mouse brain = mouse brain intracellular pH pre- and post-anoxia (Example 7, 31P NMR); assay type: in vivo, Adult Swiss mice; settings: FIG. 12, sulfate
Description: (§1) Adult Swiss mice (BK-1 male 20 g) purchased from Bantin & Kingman, Fremont, Calif., were used. Each batch consisted of 15 mice. Within each batch, five mice were selected randomly to be in the GES, taurine, or control group. A taurine group was included to serve as additional control.
A GE Omega CSI-7T (clear bore 120 mm, horizontal, 7T) was used. Mice were anesthetized with pentobarbital, 50 mg/kg, intraperitoneally. Mice were held in a padded holder which was placed in the probe chamber containing a one turn round surface coil (5 mm diameter) tunable to the resonance frequency of proton and ^31 P. To avoid signal contamination, the scalp and temporal muscle were retracted. The animal body temperature was kept at 37° C. using a non-magnetic heating pad. Field homogeneity was maximized by skimming on tissue water proton signals. ^31 P spectra were obtained using a one pulse sequence at 121.67 MHz with a spectral width of 10K and stored into 4K memory blocks (recycle time 1.2 sec). Every 100 transients (2 minutes) were blocked. In order to obtain higher accuracy, preanoxia steady state pH was determined using block average files of three blocks (300 transients, 6 minutes). Anoxia was then introduced by infusion of 100% N2 into the chamber (14 L/min). The first blocks (100 transients, 2 minutes) immediately after N2 introduction were utilized for post anoxia pH measurement. […]

anaerobic glycolysis = assay: brain lactate after 2.5 min anoxia; assay type: in vivo, Adult Swiss mice
Description: as §1
Brain lactate levels were determined for mice exposed to 2.5 minutes of anoxia as follows. Animals were exposed to 2.5 minutes of anoxia under pentobarbital anesthesia. Immediately after the exposure, animals were immersed into a liquid nitrogen. The frozen brains were removed by chiseling and extracted as described above. Lactate concentration was determined using the lactate dehydrogenase reaction.

[2] = charge state in brain cytosol from pKa; settings: sulfate
Text: (Soc. Neurosci., 21 Annual Meeting, Abstract, 1078, Oct. 5, 1992). Entry of GES across the blood-brain barrier (BBB) is likely to be in the uncharged form. Following free diffusion into the cytosol, the ratio between uncharged and charged forms will equilibrate according to cytosolic pH and the pKa value of GES.
Following free diffusion into cytosol, the ratio between charged (RH3^+) and uncharged forms will equilibrate according to cytosolic pH and their respective pKa values.

[3] = tested on: taurine transport into the brain; settings: sulfate; cited from earlier work

With `N=C(N)NCCS(=O)(=O)O` [GES, guanidinoethane sulfate] the pKa (pKa determination) was 12.5, the “mortality, 2.5 minutes of anoxia” value ([1]; 14 days i.p. pretreatment) was “zero” and the “mortality, 2.75 minutes of anoxia” value ([1]; 14 days i.p. pretreatment) was 20%. The “protection against 2.5 minutes anoxia” value ([1]; FIG. 1) was 100%, the “protection against anoxia / survival (in words)” value ([1]; listed as sodium guanidinoethane sulfate) was “effectively prevent lactic acidosis caused by complete oxygen deficiency” and the “protection against anoxia / survival (in words)” value [1] was “more effective than pretreatment with taurine or saline; also recorded: enhance the survival rate of mice exposed to anoxia; also recorded: significantly enhances the survival rate of adult mice exposed to anoxia”. For the same compound, the “intracellular pH of gerbil brain” value (gerbil brain) was 7.26 and 7.25±0.07 and 7.25, the “brain intracellular pH, pre-anoxia (in words)” value (mouse brain; 625 mg/kg i.p., two weeks, 625 mg/kg) was “detectable shift in intracellular pH, to a more alkaline level; also recorded: clear alkali shift; also recorded: significantly increased brain intracellular pH (alkaline shift)” and the “brain intracellular pH, post-anoxia (in words)” value (mouse brain) was “alkali shift is maintained following 12 minutes of post anoxia; also recorded: remained higher, retaining the degree of alkaline shift”. The Lactate (anaerobic glycolysis; Table 4, n = 5, post 2.5 min anoxia) was 0.50 ± 0.07 mM, the “lactate levels post 2.5 min anoxia (in words)” value (anaerobic glycolysis; among three groups) was “essentially identical among the three groups” and the “charge state in brain cytosol (in words)” value [2] was “virtually all GES in brain cytosol is in the charged form”. The “effect on taurine transport into the brain (in words)” value [3] was “competitive inhibitor of taurine transport into the brain; also recorded: effectively competes with and inhibits taurine transport into the brain”.
